# Test results as given in ChEMBL document CHEMBL1143923, “Synthesis, anti-HIV-1 activity, and modeling studies of N-3 Boc TSAO compound” (Bioorg Med Chem Lett, 2008).
# Active and inactive are the calls of the source. No cut-off for these calls is given here.
# Assays:
# [1] = system: Human immunodeficiency virus 1; experiment: Antiviral activity against HIV1 3B in CEM cells assessed as inhibition of viral replication; type: functional, organism-based; conditions: Human immunodeficiency virus 1, 3B, CCRF-CEM
# [2] = system: Human immunodeficiency virus 2; experiment: Antiviral activity against HIV2 ROD in CEM cells assessed as inhibition of viral replication; type: functional, organism-based; conditions: CCRF-CEM
# [3] = Cytotoxicity against human CEM cells; type: cell-based; conditions: CEM (CCRF-CEM) cells
SMILES,EC50 [1] [nM],Activity [2],CC50 [3] [nM]
Cc1cn([C@@H]2O[C@H](CO[Si](C)(C)C(C)(C)C)[C@@]3(OS(=O)(=O)C=C3N)[C@H]2O[Si](C)(C)C(C)(C)C)c(=O)[nH]c1=O,60,inactive,–
Cc1cn([C@@H]2O[C@H](CO[Si](C)(C)C(C)(C)C)[C@@]3(OS(=O)(=O)C=C3N)[C@H]2O[Si](C)(C)C(C)(C)C)c(=O)n(C)c1=O,130,inactive,–
Cc1cn([C@@H]2O[C@H](CO[Si](C)(C)C(C)(C)C)[C@@]3(OS(=O)(=O)C=C3N)[C@H]2O[Si](C)(C)C(C)(C)C)c(=O)n(C(=O)OC(C)(C)C)c1=O,23,inactive,26200
